Key:
[1] = system: Glomerella lagenarium (Colletotrichum lagenarium); assay: Fungicidal activity against Glomerella lagenarium (Colletotrichum lagenarium) liquid culture / cucumber / preventative (anthracnose); format: cell-based; details: Colletotrichum orbiculare; 20 ppm in the applied formulation; liquid culture (PDB), growth inhibition measured photometrically after 3 to 4 days; compared to untreated control; read-out: disease control
In short: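 Photometric read-out of fungal growth after 2–7 days, expressed as percent antifungal activity versus untreated check. Cryo-stored conidia in PDB; compound at 20 ppm; dark, 24 °C, 96% RH.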

[2] = system: Puccinia recondita f. Sp. Tritici; assay: Fungicidal activity against Puccinia recondita f. sp. tritici / wheat / leaf disc curative (brown rust); format: in vivo; details: foliar, 24 h, 200 ppm in the applied formulation, wheat leaf segments, curative (applied 1 day after inoculation), compared to untreated control leaf disks, read-out: disease control
In short: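 Inoculate cv. Kanzler segments on agar; hold dark, 19° C, 75% RH. Spray diluted formulated compound at day 1. Incubate 12 h light/12 h dark, same temperature and humidity; score % control vs untreated 6–8 days later.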

Phakopsora Pachyrhizi = assay: Fungicidal activity against Phakopsora pachyrhizi / soybean / leaf disc preventative (Asian soybean rust); format: in vivo; details: foliar, 200 ppm in the applied formulation, soybean leaf disks, compared to untreated control leaf disks, read-out: disease control
In short: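 Preventative soybean leaf-disc test: discs on water agar sprayed with diluted formulated compound, inoculated one day later with spores on the lower surface. Held 24–36 h dark at 20°C, 75% rh, then 12 h light/day; percent disease control versus untreated discs scored 12–14 days after application.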

[3] = system: Puccinia recondita f. Sp. Tritici; assay: Fungicidal activity against Puccinia recondita f. sp. tritici / wheat / leaf disc preventative (brown rust); format: in vivo; details: foliar, 200 ppm in the applied formulation, wheat leaf segments, preventative, compared to untreated control leaf disks, read-out: disease control
In short: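 Compound application precedes infection: segments of wheat cv. Kanzler, sprayed at 200 ppm, are inoculated with a spore suspension after 1 day. Incubation is at 19° C. with 75% relative humidity and 12 h light/12 h darkness, and control versus untreated leaves is rated 7 to 9 days post-application.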

CON(Cc1ccc(-c2noc(C(F)(F)F)n2)cc1)C(=O)C1(C)CC1(Cl)Cl (stereo not drawn) [Compound 1.32, 2,2-dichloro-N-methoxy-1-methyl-N-[[4-[5-(trifluoromethyl)-1,2,4-oxadiazol-3-yl]phenyl]methyl]-cyclopropane-carboxamide]
≥ 80%: inhibition of growth at 20 ppm [1] | pest or weed control at 200 ppm [2] | pest or weed control at 200 ppm (Phakopsora Pachyrhizi) | pest or weed control at 200 ppm [3]

CON(Cc1ccc(-c2noc(C(F)(F)F)n2)cc1)C(=O)CC(C)C [Compound 1.34, N-methoxy-3-methyl-N-[[4-[5-(trifluoromethyl)-1,2,4-oxadiazol-3-yl]phenyl]methyl]-butanamide]
≥ 80%: inhibition of growth at 20 ppm [1] | pest or weed control at 200 ppm [2] | pest or weed control at 200 ppm (Phakopsora Pachyrhizi) | pest or weed control at 200 ppm [3]

CON(Cc1ccc(-c2noc(C(F)(F)F)n2)cc1)C(=O)C(C)(C)CCl [Compound 1.35, 3-chloro-N-methoxy-2,2-dimethyl-N-[[4-[5-(trifluoromethyl)-1,2,4-oxadiazol-3-yl]phenyl]methyl]-propanamide]
≥ 80%: inhibition of growth at 20 ppm [1] | pest or weed control at 200 ppm [2] | pest or weed control at 200 ppm (Phakopsora Pachyrhizi) | pest or weed control at 200 ppm [3]

CON(Cc1ccc(-c2noc(C(F)(F)F)n2)cc1)C(=O)CC(F)(F)F [Compound 1.36, 3,3,3-trifluoro-N-methoxy-N-[[4-[5-(trifluoromethyl)-1,2,4-oxadiazol-3-yl]phenyl]methyl]-propanamide]
≥ 80%: inhibition of growth at 20 ppm [1] | pest or weed control at 200 ppm [2] | pest or weed control at 200 ppm (Phakopsora Pachyrhizi) | pest or weed control at 200 ppm [3]

CON(Cc1ccc(-c2noc(C(F)(F)F)n2)cc1)C(=O)C1CCC1 [Compound 1.38, N-methoxy-N-[[4-[5-(trifluoromethyl)-1,2,4-oxadiazol-3-yl]phenyl]methyl]-cyclobutane-carboxamide]
≥ 80%: inhibition of growth at 20 ppm [1] | pest or weed control at 200 ppm [2] | pest or weed control at 200 ppm (Phakopsora Pachyrhizi) | pest or weed control at 200 ppm [3]

CON(Cc1ccc(-c2noc(C(F)(F)F)n2)cc1)C(=O)C1CC1C (stereo not drawn) [Compound 1.40, N-methoxy-2-methyl-N-[[4-[5-(trifluoromethyl)-1,2,4-oxadiazol-3-yl]phenyl]methyl]-cyclopropane-carboxamide]
≥ 80%: inhibition of growth at 20 ppm [1] | pest or weed control at 200 ppm [2] | pest or weed control at 200 ppm (Phakopsora Pachyrhizi) | pest or weed control at 200 ppm [3]

CON(Cc1ccc(-c2noc(C(F)(F)F)n2)cc1)C(=O)CC(C)(C)C [Compound 1.41, N-methoxy-3,3-dimethyl-N-[[4-[5-(trifluoromethyl)-1,2,4-oxadiazol-3-yl]phenyl]methyl]-butanamide]
≥ 80%: inhibition of growth at 20 ppm [1] | pest or weed control at 200 ppm [2] | pest or weed control at 200 ppm (Phakopsora Pachyrhizi) | pest or weed control at 200 ppm [3]

CON(Cc1ccc(-c2noc(C(F)(F)F)n2)cc1)C(=O)C(C)(C)C [Compound 1.42, N-methoxy-2,2-dimethyl-N-[[4-[5-(trifluoromethyl)-1,2,4-oxadiazol-3-yl]phenyl]methyl]-propanamide]
≥ 80%: inhibition of growth at 20 ppm [1] | pest or weed control at 200 ppm [2] | pest or weed control at 200 ppm (Phakopsora Pachyrhizi) | pest or weed control at 200 ppm [3]

CON(Cc1ccc(-c2noc(C(F)(F)F)n2)cc1)C(=O)C1(C)CC1 [Compound 1.43, N-methoxy-1-methyl-N-[[4-[5-(trifluoromethyl)-1,2,4-oxadiazol-3-yl]phenyl]methyl]-cyclopropane-carboxamide]
≥ 80%: inhibition of growth at 20 ppm [1] | pest or weed control at 200 ppm [2] | pest or weed control at 200 ppm (Phakopsora Pachyrhizi) | pest or weed control at 200 ppm [3]

CON(Cc1ccc(-c2noc(C(F)(F)F)n2)cc1)C(=O)c1ccccc1Cl [Compound 1.44, 2-chloro-N-methoxy-N-[[4-[5-(trifluoromethyl)-1,2,4-oxadiazol-3-yl]phenyl]methyl]-benzamide]
≥ 80%: inhibition of growth at 20 ppm [1] | pest or weed control at 200 ppm [2] | pest or weed control at 200 ppm (Phakopsora Pachyrhizi) | pest or weed control at 200 ppm [3]

C=C(C)C(=O)N(Cc1ccc(-c2noc(C(F)(F)F)n2)cc1)OC [Compound 1.45, N-methoxy-2-methyl-N-[[4-[5-(trifluoromethyl)-1,2,4-oxadiazol-3-yl]phenyl]methyl]-prop-2-enamide]
≥ 80%: inhibition of growth at 20 ppm [1] | pest or weed control at 200 ppm [2] | pest or weed control at 200 ppm (Phakopsora Pachyrhizi) | pest or weed control at 200 ppm [3]

CON(Cc1ccc(-c2noc(C(F)(F)F)n2)cc1)C(=O)C1CCSCC1 [Compound 1.46, N-methoxy-N-[[4-[5-(trifluoromethyl)-1,2,4-oxadiazol-3-yl]phenyl]methyl] tetrahydrothiopyran-4-carboxamide]
≥ 80%: inhibition of growth at 20 ppm [1] | pest or weed control at 200 ppm [2] | pest or weed control at 200 ppm (Phakopsora Pachyrhizi) | pest or weed control at 200 ppm [3]

CON(Cc1ccc(-c2noc(C(F)(F)F)n2)cc1)C(=O)C1CC1(C)C (stereo not drawn) [Compound 1.47, N-methoxy-2,2-dimethyl-N-[[4-[5-(trifluoromethyl)-1,2,4-oxadiazol-3-yl]phenyl]methyl]-cyclopropane-carboxamide]
≥ 80%: inhibition of growth at 20 ppm [1] | pest or weed control at 200 ppm [2] | pest or weed control at 200 ppm (Phakopsora Pachyrhizi) | pest or weed control at 200 ppm [3]

CCC(C)C(=O)N(Cc1ccc(-c2noc(C(F)(F)F)n2)cc1)OC (stereo not drawn) [Compound 1.48, N-methoxy-2-methyl-N-[[4-[5-(trifluoromethyl)-1,2,4-oxadiazol-3-yl]phenyl]methyl]-butanamide]
≥ 80%: inhibition of growth at 20 ppm [1] | pest or weed control at 200 ppm [2] | pest or weed control at 200 ppm (Phakopsora Pachyrhizi) | pest or weed control at 200 ppm [3]

CON(Cc1ccc(-c2noc(C(F)(F)F)n2)cc1)C(=O)Cc1ccc(Cl)cc1 [Compound 1.49, 2-(4-chlorophenyl)-N-methoxy-N-[[4-[5-(trifluoromethyl)-1,2,4-oxadiazol-3-yl]phenyl]methyl]-acetamide]
≥ 80%: inhibition of growth at 20 ppm [1] | pest or weed control at 200 ppm [2] | pest or weed control at 200 ppm (Phakopsora Pachyrhizi) | pest or weed control at 200 ppm [3]

CON(Cc1ccc(-c2noc(C(F)(F)F)n2)cc1)C(=O)C1(C)COC1 [Compound 1.50, N-methoxy-3-methyl-N-[[4-[5-(trifluoromethyl)-1,2,4-oxadiazol-3-yl]phenyl]methyl]-oxetane-3-carboxamide]
≥ 80%: inhibition of growth at 20 ppm [1] | pest or weed control at 200 ppm [2] | pest or weed control at 200 ppm (Phakopsora Pachyrhizi) | pest or weed control at 200 ppm [3]

CON(Cc1ccc(-c2noc(C(F)(F)F)n2)cc1)C(=O)CCCCC(F)(F)F [Compound 1.53, 6,6,6-trifluoro-N-methoxy-N-[[4-[5-(trifluoromethyl)-1,2,4-oxadiazol-3-yl]phenyl]methyl]-hexanamide]
≥ 80%: inhibition of growth at 20 ppm [1] | pest or weed control at 200 ppm [2] | pest or weed control at 200 ppm (Phakopsora Pachyrhizi) | pest or weed control at 200 ppm [3]

CCC(COC)C(=O)N(Cc1ccc(-c2noc(C(F)(F)F)n2)cc1)OC (stereo not drawn) [Compound 1.57, N-methoxy-2-(methoxymethyl)-N-[[4-[5-(trifluoromethyl)-1,2,4-oxadiazol-3-yl]phenyl]methyl]-butanamide]
≥ 80%: inhibition of growth at 20 ppm [1] | pest or weed control at 200 ppm [2] | pest or weed control at 200 ppm (Phakopsora Pachyrhizi) | pest or weed control at 200 ppm [3]

Reference: patent US11180462B2, “Microbiocidal oxadiazole derivatives” (SYNGENTA PARTICIPATIONS AG, priority 2015, dated 2021)
